The subject of experiment [1] is infant regional cerebral blood flow (rCBF). In words: Arterial Spin Labeling (rCBF) of newborn brain vs HMO concentration in mother's milk at 1-month, voxel-wise multiple linear regression. The class given is in vivo, human. As to conditions: for association of exposure with rCBF: milk concentration at 1-month, total sample N=20, FDR-corrected; for B, association of exposure with rCBF: white matter. From the text: (§1) Twenty mother-infant pairs were recruited from maternity clinics in Los Angeles County as part of a larger cohort study, and inclusion criteria has been previously described. Briefly, mothers were included if they were ≥18 years old at delivery, had given birth to a full-term singleton newborn, were breastfeeding, and were enrolled within 1 month from delivery. […] The Institutional Review Board of Children's Hospital Los Angeles approved all procedures. Participants provided written informed consent prior to data collection.
(§2) Mother-infant pairs were assessed at 1-month postpartum. Historical health-related information was collected. Mothers pumped a full expression of breast milk that was analyzed for individual HMO concentrations. Infants underwent magnetic resonance imaging (MRI) scanning at approximately 1-month postpartum to assess brain tissue microstructure and regional cerebral blood flow (rCBF).
(§3) Breast milk was collected and analyzed following standard procedures. Mothers were asked to avoid eating and drinking for 1-hour and feeding or pumping breast milk for 1.5-hours before collection. Mothers were encouraged to pump the entire contents of a single breast expression to ensure collection of fore, mid, and hind milk to standardize milk collection as much as possible. Aliquots were stored at −80° C. until HMO characterization at the University of California San Diego. Raffinose was added to each sample as an internal standard for absolute quantification. HMOs were isolated with high-throughput solid-phase extraction, fluorescently labeled, and measured using HPLC. Nineteen HMOs were quantified based on standard retention times and mass spectrometric analysis, which accounted for >90% of total HMO composition. The initial focus, however, was on the most abundant fucosylated and sialylated HMOs reported to influence brain development in animals and infants: 2′FL, 3FL, 3′SL, and 6′SL. Secretor status was defined by the presence or near absence of HMOs 2′FL or lacto-N-fucopentaose I.
(§4) MRI data were collected on a 3 Tesla Philips Achieva MRI scanner equipped with a 32-channel receive-only head coil. All data were acquired without sedation or contrast agent. Mothers and staff lulled infants to sleep with feeding and swaddling. Scans were visually monitored and repeated for any visible motion. Detailed image quality was assessed during preprocessing within 48 hours of scan acquisition.
Arterial Spin Labeling (ASL), which quantifies rCBF, a surrogate measure of cellular metabolism: The rCBF brain images and the Mo_wM image to the first rCBF image for each participant were aligned in native imaging space to correct for head motion. Images with >0.5 mm inter-frame motion were excluded from further processing. […] An in-house software was used to construct for each infant a voxel-wise map of rCBF from the ASL time series and Mo_wm image: 1) pair-wise subtracted the control images from the labeled images; 2) Perfusion-weighted images were calculated by pair-wise subtraction of the control and labeled images, followed by averaging across the imaging time series. The perfusion map (rCBF) was calculated using a single compartment model. A linear transformation with 6 degrees of freedom was used to coregister the quantitative rCBF maps for each infant to their T1-weighted anatomical images, which were in turn used as an intermediary source to coregister the rCBF images for each infant to the final brain template. […]

In experiment [2] the test system is infant brain tissue microstructure. In words: Diffusion Tensor Imaging (FA, MD) of newborn brain vs HMO concentration in mother's milk at 1-month, voxel-wise multiple linear regression. The class given is in vivo, human. As to conditions: for association of exposure with FA values / association of exposure with MD values: milk concentration at 1-month, total sample N=20, FDR-corrected.
Text: as §1, §2, §3, §4
Diffusion Tensor Imaging (DTI), which measures the diffusion of water as influenced by characteristics of brain tissue microstructure: The template brain was selected using a 2-step procedure to find the brain that was morphologically representative of all brains in our sample, as described in FIG. 1. Quality assurance procedures were instituted to exclude datasets with excessive motion. The diffusion tensor (D) was estimated at each voxel of the pre-processed DTI data in DSI Studio (RRID:SCR_009557) and computed the scalar indices fractional anisotropy (FA), mean diffusivity (MD), axial diffusivity (AD), and radial diffusivity (RD). These maps were edited to remove nonbrain tissue and then were threshed to remove background noise. Edited MD map was used to mask out nonbrain tissue in the FA, AD, and RD maps. The edited maps for each infant were coregistered using a rigid body transformation (3 translations and 3 rotations) to the infant's T1-weighted (T1w) anatomical image, which were in turn used as an intermediary source to coregister the maps for each infant to the final template brain. The FA, AD, MD, and RD maps were then smoothed using a Gaussian kernel with FWHM=4 mm.
Descriptive statistics are presented as mean±standard deviation (SD) for continuous variables and as frequency (percentage) for categorical variables. Normal distribution and homogeneity of variances were confirmed by Shapiro-Wilks W and Levene's tests. Values >3 SD from the mean were identified as outliers. […]

A further experiment has as its system piglets. As to conditions: cited from earlier work; for learning and memory tasks compared to controls: piglets fed the substance; for cognitive performance: piglets, feeding.

In the case of `CC(=O)N[C@H]1[C@H]([C@H](O)[C@H](O)CO)O[C@@](O[C@H]2[C@@H](O)[C@@H](CO)O[C@@H](O[C@H]3[C@H](O)[C@@H](O)C(O)O[C@@H]3CO)[C@@H]2O)(C(=O)O)C[C@@H]1O` (stereo partly shown) [3′SL, 3′-sialyllactose], in experiment [1], the “association of exposure with rCBF” value was “increased rCBF”. Also, the entries for the “B, association of exposure with rCBF” value in experiment [1] (CC), in experiment [1] (IC) and in experiment [1] (aCR) were 0.06, 0.04 and 0.07, respectively. Further, the “B, association of exposure with MD values” in experiment [2] (left posterior corona radiata, pCR) is −0.10. Also, in experiment [2], the “association of exposure with FA values” is “increased FA values”. Also, the “association of exposure with MD values” in experiment [2] is recorded as “reduced MD values”. The “B, association of exposure with FA values” in experiment [2] (right DLPFC) is given as 0.03; in experiment [2] (right aCR) it was 0.04. For the same compound, the “learning and memory tasks compared to controls” value in the experiment with piglets was “performed better on learning and memory tasks”. For the same compound, the cognitive performance result with piglets is listed as “improved cognitive performance”.
For the compound `CC(=O)N[C@H]1[C@H]([C@H](O)[C@H](O)CO)O[C@@](OC[C@H]2O[C@@H](O[C@H]3[C@H](O)[C@@H](O)[C@H](O)O[C@@H]3CO)[C@H](O)[C@@H](O)[C@H]2O)(C(=O)O)C[C@@H]1O` [6′SL, 6′-sialyllactose, reference compound], the “association of exposure with rCBF” value in experiment [1] is on record as “not significantly associated”. In experiment [2], the “association of exposure with FA values” is reported as “not significantly associated” and the “association of exposure with MD values” was “not significantly associated”. Besides, in the experiment with piglets, the “learning and memory tasks compared to controls” value was “performed better on learning and memory tasks”; the cognitive performance result is reported as “improved cognitive performance”.

These data come from patent US20250000885A1, “COMPOSITION COMPRISING TWO OR MORE OLIGOSACCHARIDES” (Children's Hospital Los Angeles, priority 2022, published 2025).
